Earlier results as cited in US20210360928A1, “ANTIMICROBIAL/ANTIVIRAL NONWOVEN AND APPLICATIONS OF THE SAME” (priority 2020, published 2021).

[Cl][Ag] [silver chloride]
solubility in water: unusually insoluble in water
